Measured values from article PMC6152127, “Facile Synthesis of Novel Coumarin Derivatives, Antimicrobial Analysis, Enzyme Assay, Docking Study, ADMET Prediction and Toxicity Study” (Molecules : A Journal of Synthetic Chemistry and Natural …, 2017).
In brackets after ≈: the same amount, converted by molar mass.

Columns and labels:
[1] = system: Aspergillus flavus (NCIM-539); test: In vitro antifungal activity, MIC, agar method (CLSI); assay type: cell-based; settings: NCIM539, average of three readings
Experimental: (§1) The newly synthesized 3-((dicyclohexylamino)(substituted phenyl/heteryl)methyl)-4-hydroxy-2H-chromen-2-one derivatives 4a–o were screened for their in vitro antifungal activity against different yeast and filamentous fungal pathogens. […] Dimethyl sulfoxide (DMSO) was used as solvent control.
(§2) All the synthesized compounds were screened for their in vitro antifungal and antibacterial activity. The antibacterial activity was evaluated against three human pathogenic bacterial strains: Escherichia coli (NCIM-2256), Bacillus subtilis (NCIM-2063) and Staphylococcus aureus (NCIM-2901). The antifungal activity was evaluated against seven human pathogenic fungal strains: Candida albicans (NCIM-3471), Candida glabrata (NCYC-388), Fusarium oxysporum (NCIM-1332), Aspergillus fumigates (NCIM-902), Aspergillus flavus (NCIM-539), Aspergillus niger (NCIM-1196) and Cryptococcus neoformans (NCIM-576), which are often encountered clinically. […] Minimum inhibitory concentration (MIC) values were determined as per CLSI guidelines. Dimethyl sulfoxide (DMSO) was used as solvent control.
(§3) Antifungal activity was determined as per CLSI (formerly, NCCLS) guidelines. […] The medium yeast nitrogen base was dissolved in phosphate buffer pH 7 and it was autoclaved at 110 °C for 10 min. With each set a growth control without the antifungal agent and solvent control DMSO were included. The fungal strains were freshly sub cultured on to Sabouraud dextrose agar (SDA) and incubated at 25 °C for 72 h. The fungal cells were suspended in sterile distilled water and diluted to get 10^5 cells/mL. Ten μL of the standardized suspension was inoculated onto the control plates and the media incorporated with the antifungal agents. The inoculated plates were incubated at 25 °C for 48 h. The readings were taken at the end of 48 h and 72 h. The MIC was the lowest concentration of drug preventing growth of macroscopically visible colonies on drug containing plates when there was visible growth on the drug free control plates.

[2] = system: Aspergillus fumigates (NCIM-902); test: as above; assay type: cell-based; settings: NCIM902, average of three readings
Experimental: as §1, §2, §3

[3] = system: Aspergillus niger (NCIM-1196); test: as above; assay type: cell-based; settings: NCIM1196, average of three readings
Experimental: as §1, §2, §3

[4] = system: Candida albicans (NCIM-3471); test: as above; assay type: cell-based; settings: NCIM3471, average of three readings
Experimental: as §1, §2, §3

[5] = system: Candida glabrata (NCYC-388); test: as above; assay type: cell-based; settings: Nakaseomyces glabratus; average of three readings
Experimental: as §1, §2, §3

[6] = system: Cryptococcus neoformans (NCIM-576); test: as above; assay type: cell-based; settings: NCIM576, average of three readings
Experimental: as §1, §2, §3

[7] = system: Fusarium oxysporum (NCIM-1332); test: as above; assay type: cell-based; settings: NCIM1332, average of three readings
Experimental: as §1, §2, §3

[8] = system: Bacillus subtilis (NCIM-2063); test: In vitro antibacterial activity, MIC; assay type: cell-based; settings: Bacillus subtilis, NCIM2063; average of three readings
Experimental: (§4) The newly synthesized compounds 4a–o were screened for their in vitro antibacterial activity against the three different bacterial strains. Minimum inhibitory concentration (MIC) values for antibacterial activity were determined by standard agar method using Ampicillin as standard drug. Dimethyl sulfoxide (DMSO) was used as solvent control. […] Compound 4e bearing a 2,4-difluoro group on the phenyl ring was 48 µg/mL for E. coli, 50 µg/mL for B. subtilis and 52 µg/mL for S. aureus.
(§5) All the synthesized compounds were screened for their in vitro antifungal and antibacterial activity. The antibacterial activity was evaluated against three human pathogenic bacterial strains: Escherichia coli (NCIM-2256), Bacillus subtilis (NCIM-2063) and Staphylococcus aureus (NCIM-2901). The antifungal activity was evaluated against seven human pathogenic fungal strains: Candida albicans (NCIM-3471), Candida glabrata (NCYC-388), Fusarium oxysporum (NCIM-1332), Aspergillus fumigates (NCIM-902), Aspergillus flavus (NCIM-539), Aspergillus niger (NCIM-1196) and Cryptococcus neoformans (NCIM-576), which are often encountered clinically. Miconazole was used as standard drug. Minimum inhibitory concentration (MIC) values were determined as per CLSI guidelines. Dimethyl sulfoxide (DMSO) was used as solvent control.
(§6) All the synthesized compounds 4a–o were screened for their in vitro antibacterial activity. Minimum inhibitory concentration (MIC) values were determined using method recommended by National Committee for Clinical Laboratory Standards (NCCLS). In vitro antibacterial activities of the synthesized compounds 4a–o were tested in Nutrient Broth (NB) for bacteria by the two fold serial dilution method. Seeded broth (broth containing microbial spores) was prepared in NB from 24 h old bacterial cultures on nutrient agar (Hi-media) at 37± 1 °C. The bacterial suspension was adjusted with sterile saline to a concentration of 1× 10^−4–10^−5 C.F.U. The synthesized compounds and standard drug Ampicillin were prepared by two fold serial dilutions to obtain the required concentrations of 400, 200, 100, 50, 25, 12.5, 6.25 and 3.13 μg/mL. The tubes were incubated in BOD incubators at 37± 1 °C for bacteria. The MICs were recorded by visual observations after 24 h (for bacteria) of incubation.

[9] = system: Escherichia coli (NCIM-2256); test: In vitro antibacterial activity, MIC; assay type: cell-based; settings: Escherichia coli, NCIM2256; average of three readings
Experimental: as §4, §5, §6

[10] = system: Staphylococcus aureus (NCIM-2901); test: In vitro antibacterial activity, MIC; assay type: cell-based; settings: Staphylococcus aureus, NCIM2901; average of three readings
Experimental: as §4, §5, §6

[11] = system: ergosterol biosynthesis in C. albicans; test: Ergosterol extraction and quantitation assay; assay type: cell-based, Candida albicans (NCIM-3471); settings: at the MIC value (25 µg/mL), C. albicans NCIM3471
Experimental: A single Candida albicans (NCIM-3471) colony from an overnight Sabouraud dextrose agar plate culture was used to inoculate 50 mL of Sabouraud dextrose broth for control and for various concentrations of the molecules. […] The net weight of the cell pellet was determined. […] Cell suspensions were transferred to sterile borosilicate glass screw-cap tubes and were incubated in an 85 °C water bath for one hour. Following incubation, the tubes were allowed to cool. […] The heptane layer was transferred to a clean borosilicate glass screw-cap tube and stored at −20 °C. […] The absence of detectable ergosterol in extracts was indicated by a flat line.

[12] = system: HeLa (Human cervical cancer cell line); test: In vitro cytotoxicity, Sulforhodamine B (SRB) assay; assay type: cell-based
Experimental: To examine the safety of the synthesized compounds, the compounds 4e and 4k were evaluated for their toxicity against the HeLa human cervical cancer cell line by a Sulforhodamine B (SRB) assay using Adriamycin as a standard drug.
In vitro cytotoxicity study of the synthesized compounds 4e and 4k was performed against HeLa (Human cervical cancer cell line) by Sulforhodamine B (SRB) assay using Adriamycin as positive control. The images were captured using an Eclipse Ti-S Inverted Research Microscope (Nikon, Tokyo, Japan). Image processing software used was NIS-Elements.

Swiss albino mice = test: In vivo acute oral toxicity study and behavioral study (OECD guideline no. 425); parameters: key to Straub Tail / Pilo Erection / Convulsions / Normal Motor Activity / Stereotypy / Tremors / Sedation / Hypnosis / Muscle Spasms / Toxicity / Deaths / Eye Lacrimation / Salivation / Diarrhea / Respiration Problems: N: no; Y: yes
Experimental: In vivo acute oral toxicity study and gross behavioral studies of the newly synthesized compounds 4e and 4k is shown in Table 5.
425 using Swiss albino mice (18–22 gm weight) quarantined at animal house at Y.B. Chavan College of Pharmacy, Aurangabad IAEC approval number CPCSEA/IAEC/P’col-52/2015-16/115. Each group consists of six mice (overnight fasted) and kept in colony cage at 25 ± 2 °C with 55% relative humidity and 12 h of light and dark cycle. A specified dose of 100, 250, 500, 750, 1000, 1500 and 2000 mg/kg body weight of mice was administered orally as a single dose. The acute toxic symptoms and the behavioral changes produced by the synthesized compounds were observed continuously for 4 h periods at 8th, 12th and 24th h on set of toxic symptoms and the gross behavioral changes were also recorded. These animals were maintained for further 10 days with observation made daily.

[13] = Swiss albino mice, single oral dose 100–2000 mg/kg

**Q.** Which results are given for `COc1cc(C(c2c(O)c3ccccc3oc2=O)N(C2CCCCC2)C2CCCCC2)ccc1O` (centres unmarked) [Compound 4k, 3-((Dicyclohexylamino)(4-hydroxy-3-methoxyphenyl)methyl)-4-hydroxy-2H-chromen-2-one]?
**A.** MIC [1]: 12 µg/mL (≈ 25.1 µM); MIC [2]: 38 µg/mL (≈ 79.6 µM); MIC [3]: 15 µg/mL (≈ 31.4 µM); MIC [4]: 25 µg/mL (≈ 52.3 µM); MIC [5]: 30 µg/mL (≈ 62.8 µM); MIC [6]: 15 µg/mL (≈ 31.4 µM); MIC [7]: 28 µg/mL (≈ 58.6 µM); MIC [8]: 55 µg/mL (≈ 115 µM); MIC [9]: 55 µg/mL (≈ 115 µM); MIC [10]: 54 µg/mL (≈ 113 µM); UV sterol profile, ergosterol peak at 281.5 nm [11]: almost a flat curve; GI50 ([12]; Homo sapiens, HeLa, SRB assay, concentration range 50 to 0.78 μg/mL): > 50 µg/mL; cell inhibition HeLa ([12]; up to 50 µg/mL concentration, Figure 4): did not take place; Convulsions (Swiss albino mice; [13]): N; Deaths (Swiss albino mice; [13]): N; Diarrhea (Swiss albino mice; [13]): N; Eye Lacrimation (Swiss albino mice; [13]): N; Hypnosis (Swiss albino mice; [13]): N; Muscle Spasms (Swiss albino mice; [13]): N; Normal Motor Activity (Swiss albino mice; [13]): Y; Pilo Erection (Swiss albino mice; [13]): N; Respiration Problems (Swiss albino mice; [13]): N; Salivation (Swiss albino mice; [13]): N; Sedation (Swiss albino mice; [13]): N; Stereotypy (Swiss albino mice; [13]): N; Straub Tail (Swiss albino mice; [13]): N; Toxicity (Swiss albino mice; [13]): N; Tremors (Swiss albino mice; [13]): N; lethal dose (Swiss albino mice; oral, mice, body weight, no mortality up to 2000 mg/kg): above 2000 mg/kg
